Measured values as given in PubChem BioAssay (NCI).
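48-hour exposure; five concentrations; linearly interpolated endpoints. Abbreviation: GI50, concentration required for 50% inhibition of growth. TGI: total growth inhibition.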

Assays:
Experiment in all cases: NCI tumour cell line growth inhibition, 48 h
[1] = system: 786-0 renal
[2] = system: A498 renal
[3] = system: A549 NSCLC
[4] = system: ACHN renal
[5] = system: BT-549 breast
[6] = system: CAKI-1 renal
[7] = system: CCRF-CEM leukemia
[8] = system: COLO 205 colon
[9] = system: DU-145 prostate
[10] = system: EKVX NSCLC
[11] = system: HCC-2998 colon
[12] = system: HCT-116 colon
[13] = system: HCT-15 colon
[14] = system: HL-60(TB) leukemia
[15] = system: HOP-62 NSCLC
[16] = system: HOP-92 NSCLC
[17] = system: HS 578T breast
[18] = system: HT29 colon
[19] = system: IGROV1 ovarian
[20] = system: K-562 leukemia
[21] = system: KM12 colon
[22] = system: LOX IMVI melanoma
[23] = system: M14 melanoma
[24] = system: MALME-3M melanoma
[25] = system: MCF7 breast
[26] = system: MDA-MB-231 breast
[27] = system: MDA-MB-435
[28] = system: MOLT-4 leukemia
[29] = system: NCI-H226 lung
[30] = system: NCI-H23 lung
[31] = system: NCI-H460 lung
[32] = system: NCI-H522 lung
[33] = system: NCI/ADR-RES ovarian
[34] = system: OVCAR-3 ovarian
[35] = system: OVCAR-4 ovarian
[36] = system: OVCAR-5 ovarian
[37] = system: OVCAR-8 ovarian
[38] = system: PC-3 prostate
[39] = system: RPMI-8226 leukemia
[40] = system: RXF 393 renal
[41] = system: SF-268 CNS
[42] = system: SF-295 CNS
[43] = system: SF-539 CNS
[44] = system: SK-MEL-2 melanoma
[45] = system: SK-MEL-28 melanoma
[46] = system: SK-MEL-5 melanoma
[47] = system: SK-OV-3 ovarian
[48] = system: SN12C renal
[49] = system: SNB-19 CNS
[50] = system: SNB-75 CNS
[51] = system: SR leukemia
[52] = system: SW-620 colon
[53] = system: T-47D breast
[54] = system: TK-10 renal
[55] = system: U251 CNS
[56] = system: UACC-257 melanoma
[57] = system: UACC-62 melanoma
[58] = system: UO-31 renal

CCC(CO)Nc1nc(NCc2ccccc2O)c2ncn(C(C)C)c2n1 (stereo unspecified)
GI50 [1]: 4.46 µM | TGI [1]: > 100 µM | GI50 [2]: 3.66 µM | TGI [2]: 18 µM | GI50 [3]: 4.03 µM | TGI [3]: > 100 µM | GI50 [4]: 1.96 µM | TGI [4]: > 100 µM | GI50 [5]: 2.76 µM | TGI [5]: > 100 µM | GI50 [6]: 15.6 µM | TGI [6]: 63.4 µM | GI50 [7]: 2.21 µM | TGI [7]: 9.39 µM | GI50 [8]: 1.95 µM | TGI [8]: 3.89 µM | GI50 [9]: 4.46 µM | TGI [9]: > 100 µM | GI50 [10]: 15.2 µM | TGI [10]: > 100 µM | GI50 [11]: 0.215 µM | TGI [11]: 6.98 µM | GI50 [12]: 2.65 µM | TGI [12]: > 100 µM | GI50 [13]: 2.25 µM | TGI [13]: > 100 µM | GI50 [14]: 2.08 µM | TGI [14]: 4.58 µM | GI50 [15]: 5.62 µM | TGI [15]: > 100 µM | GI50 [16]: 4.97 µM | TGI [16]: 26.2 µM | GI50 [17]: 3.1 µM | TGI [17]: 16.7 µM | GI50 [18]: 3.67 µM | TGI [18]: 60.1 µM | GI50 [19]: 1.81 µM | TGI [19]: 5.64 µM | GI50 [20]: 0.628 µM | TGI [20]: 16.4 µM | GI50 [21]: 3.92 µM | TGI [21]: > 100 µM | GI50 [22]: 2.63 µM | TGI [22]: > 100 µM | GI50 [23]: 4.77 µM | TGI [23]: 18.8 µM | GI50 [24]: 40.1 µM | TGI [24]: > 100 µM | GI50 [25]: 2.88 µM | TGI [25]: 8.73 µM | GI50 [26]: 4.22 µM | TGI [26]: 38 µM | GI50 [27]: 2.64 µM | TGI [27]: 9.34 µM | GI50 [28]: 2.91 µM | TGI [28]: 12.9 µM | GI50 [29]: 8.95 µM | TGI [29]: 50.8 µM | GI50 [30]: 2.98 µM | TGI [30]: 15.7 µM | GI50 [31]: 2.45 µM | TGI [31]: 11.8 µM | GI50 [32]: 1.8 µM | TGI [32]: 8.52 µM | GI50 [33]: 6.63 µM | TGI [33]: 53.9 µM | GI50 [34]: 3.1 µM | TGI [34]: 19.8 µM | GI50 [35]: 5.42 µM | TGI [35]: 33.6 µM | GI50 [36]: 3.72 µM | TGI [36]: > 100 µM | GI50 [37]: 4.21 µM | TGI [37]: > 100 µM | GI50 [38]: 5.67 µM | TGI [38]: 30.8 µM | GI50 [39]: 4.41 µM | TGI [39]: 20.7 µM | GI50 [40]: 3.29 µM | TGI [40]: > 100 µM | GI50 [41]: 2.55 µM | TGI [41]: 13 µM | GI50 [42]: 2.95 µM | TGI [42]: 8.03 µM | GI50 [43]: 3.72 µM | TGI [43]: 28.4 µM | GI50 [44]: 1.79 µM | TGI [44]: 5.83 µM | GI50 [45]: 2.35 µM | TGI [45]: 12.8 µM | GI50 [46]: 2.54 µM | TGI [46]: 11.9 µM | GI50 [47]: 5.95 µM | TGI [47]: 41 µM | GI50 [48]: 2.77 µM | TGI [48]: 37.5 µM | GI50 [49]: 3.3 µM | TGI [49]: 76 µM | GI50 [50]: 1.96 µM | TGI [50]: 6.82 µM | GI50 [51]: 1.35 µM | TGI [51]: 4.1 µM | GI50 [52]: 3.34 µM | TGI [52]: > 100 µM | GI50 [53]: 5.07 µM | TGI [53]: 32.8 µM | GI50 [54]: 10.2 µM | TGI [54]: > 100 µM | GI50 [55]: 4.75 µM | TGI [55]: > 100 µM | GI50 [56]: 32.2 µM | TGI [56]: > 100 µM | GI50 [57]: 2.3 µM | TGI [57]: 12.5 µM | GI50 [58]: 0.0777 µM | TGI [58]: 4.27 µM
